Entries after “also recorded” stand apart in the source; their conditions may differ.
Columns and labels:
wart-shaped excrescence = experiment: topical treatment of a wart-shaped excrescence (Example 9); format: in vivo, human
Experimental: A person presented a wart-shaped excrescence of increasing size (diameter: about 5 mm; height: about 3 mm), formed at the site of a stab wound on their right middle finger after an initial inflammatory reaction. The excrescence grew over a period of about 1.5 years. There was heavy vascularization at the site, as well as superficial furrowing. The position of the wart (side facing the ring finger), made it quite susceptible to injury.
The patient was treated by topically administering a composition containing 40 mg/ml hexadecylphosphocholine, 317 mg/ml of 3-propoxypropyleneglycol, 158 mg/ml of hexyloxypropyleneglycol, and 158 mg/ml of nonyloxypropyleneglycol, in solution, and then a solution containing 60 mg/ml of the hexadecy/phosphocholine, and the other components above, in the same amounts. The solutions were administered topically, 2-3 times per day.
The excrescence rapidly developed a horny surface, and regressed. Cornified residues were removable without bleeding. The treatment was terminated […] the surrounding skin level was reached. This took about 6 weeks. When the patient was examined about 8 weeks later, the condition was stable. […] It is believed that this was the result of regeneration of the epidermis in the excrescence region.

[1] = test system: chemically-induced mammary carcinomas; experiment: chemically-induced mammary carcinomas in rats, oral potable solution; format: in vivo, rat; settings: daily doses of 20, 40 and 60 mg/kg body weight
Text: For oral administration, the compounds of formula I are advantageously used in the form of a potable solution. Suitable potable carriers for this purpose include milks, cocoa, fruit juices and drinking water. The preparation of such potable solutions can involve, for example, diluting a concentrated alcoholic solution of a compound of the formula I or I′ with water or with another one of the previously mentioned carriers. […] The tumor model used for these experiments was a so-called hard model. This means that the findings obtained with this model can also be applied to humans.

Compound	condition at follow-up (wart-shaped excrescence; examined about 8 weeks after end of treatment)	effect on the excrescence (wart-shaped excrescence; person, topical 2-3 times per day, 40 then 60 mg/ml in propoxy-/hexyloxy-/nonyloxypropyleneglycol solution)	damage to surrounding healthy skin regions (wart-shaped excrescence; topical)	time of treatment until termination (before surrounding skin level was reached) (wart-shaped excrescence; topical 2-3 times per day)	skin reactions (wart-shaped excrescence; topical, reddening disappeared after about 2 weeks)	remission of chemically-induced mammary carcinomas [1]
CCCCCCCCCCCCCCCCOP(=O)([O-])OCC[N+](C)(C)C [hexadecylphosphocholine]	stable	regressed	no apparent damage	about 6 weeks	slight reddening of the skin; also recorded: slight peeling of healthy skin	
CCCCCCCC/C=C\CCCCCCCCOP(=O)([O-])OCC[N+](C)(C)C [oleylphosphocholine]						complete remission
